According to paper PMC5947527 (Chemical Science, 2015):
Entries after “also recorded” stand apart in the source; their conditions may differ. Non-standard residues stand in square brackets, D forms with d. Residues, ends and D or L forms follow the SMILES beside them. *: point of attachment. NBD = O=[N+]([O-])c1ccc(*)c2nonc12; Nle = CCCC[C@H](N)C(=O)O; Ahx = NCCCCCC(=O)O

Legend:
P. aeruginosa = assay: Confocal labelling of bacteria in the presence of human ARDS BALF; type: cell-based; details: 10 μM, n = 3 PBS, n = 5 ARDS, p < 0.001
From the text: To determine the ability of UBI-3 to image bacteria in the continued presence of a complex inflammatory environment, bacteria were labelled with UBI-3 in the presence of broncho-alveolar lavage fluid (BALF) retrieved from ventilated ICU patients with Acute Respiratory Distress Syndrome (ARDS). ARDS BALF was utilised as ARDS is a severe life threatening pulmonary syndrome, characterized by a massive proteolytic and oxidative inflammatory environment within the distal alveolar region.[14] […] To design out susceptible amino acid cleavage points, a number of modifications were made (Table 1) and the functional consequences assessed. […]
(§1) Confocal Analysis and Fluorescence Quantification: 8-Well Lab-Tek II Confocal Chambers (VWR, PA, USA) were coated in fibronectin (for neutrophil experiments) or poly-d-lysine (for bacteria) at 37 °C for 20 minutes, then washed in PBS prior to bacterial innoculation. […] Exposure to 488 nm light was limited to 5% of the maximum laser power in order to minimize toxicity. ‘Green’ fluorescence (for FAM and NBD) was excited with a dedicated 488 nm line and emitted light detected with meta detector (500-530 nM).
(§2) Syto nuclear and dyes were excited with a dedicated 543 nm line, and emitted light detected with meta detector (570-610 nM). Fields of view were chosen based on the counterstain and at least three fields of view were recorded for each condition. […]

[1] = tested on: methicillin-sensitive Staphylococcus aureus (MSSA), Pseudomonas aeruginosa and Klebsiella pneumoniae; assay: Confocal bacterial labelling, UBI-2 vs UBI-3 on a panel of bacteria; type: cell-based; details: fluorescence normalised to UBI-2, mean ± SEM, n ≥ 3
Method: Fig. 3 UBI-3 retains specificity and sensitivity for bacterial labelling. […] Panels show bacteria labelled with either UBI-2 or UBI-3 with quantification of fluorescence (values normalised to UBI-2) (Bars represent mean, error bars represent standard error of mean, n ≥ 3, ns = not significant, scale bar = 10 μm). (B) Quantification from confocal images of UBI-3 (10 μM) imaging a panel of bacteria (statistical analyses shown compared to unlabelled bacteria, n ≥ 3 for each bacteria, *** = p < 0.001). […] [MRSA: methicillin-resistant Staphylococcus aureus, MSSA: methicillin-sensitive Staphylococcus aureus]. […]
as §1, §2

[2] = Chemical stability on storage in phosphate buffered saline at 37 °C (HPLC); type: physicochemical; details: 1 mg mL–1 in PBS, day 0 vs day 3, HPLC, detection at 380 nm
Method: This modification is particularly of relevance due to the expected in vivo inflammatory oxidative environment within an infected pneumonic lung due to infiltrating host inflammatory cells such as neutrophils,[13] and therefore all subsequent modifications incorporated Nle in place of Met.
HPLC chromatograms (gradient acetonitrile + 0.1% formic acid/water + 0.1% formic acid from 5/95 to 95/5 over 10 min, then isocratic for 4 min; detection at 380 nm). UBI-2 (1 mg mL^–1 in PBS, upper panels) and UBI-3 (1 mg mL^–1 in PBS, lower panels) at (A) day 0 and (B) day 3 after incubation at 37 °C.

For `CCCC[C@H](NC(=O)[C@H](CCCNC(=N)N)NC(=O)[C@H](CCCNC(=N)N)NC(=O)[C@H](CCCCN)NC(=O)[C@H](C)NC(=O)[C@H](CCCNC(=N)N)NC(=O)CNC(=O)[C@@H](NC(=O)CCCCCNc1ccc([N+](=O)[O-])c2nonc12)[C@@H](C)O)C(=O)N[C@@H](CCC(N)=O)C(=O)N[C@@H](Cc1ccc(O)cc1)C(=O)N[C@@H](CC(N)=O)C(=O)N[C@@H](CCCNC(=N)N)C(=O)N[C@@H](CCCNC(=N)N)C(N)=O` [UBI-3] ({NBD-Ahx}-TGRAKRR[Nle]QYNRR-NH2), the “fluorescent labelling intensity of bacteria in ARDS BALF compared to PBS” value (P. aeruginosa) was “significant reduction in the fluorescent labelling intensity; also recorded: significantly reduced intensity when compared to PBS”, the “bacterial labelling, Met vs Nle variant” value [1] was “retained bacterial labelling; also recorded: same fluorescence intensity” and the “chemical stability in PBS at 37 °C” value [2] was “prevented by substitution of the Met to Nle”.
